# Laboratory results as given in patent US20230021483A1, “[…] […] METHOD AND CLASSIFICATION OF PHARMACEUTICAL COMPONENTS BY USING TRANSCRIPTOMES” (National Institutes of Biomedical Innovation, Health and …, priority 2016, published 2023).
# Legend:
# Assay type in all cases: in vivo, C57BL/6 mice
# [1] = system: preferentially upregulated genes in LV, SP, LN; experiment: Z-score-based differential gene expression analysis (adjuvant group- or adjuvant-associated genes, 40 module mapping, TargetMine annotation); conditions: ID, LV
# Summary of the method: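 Per-sample fold-change values converted to gene-wise z-scores within each organ's data set, then triplicate z-scores summed per adjuvant. Genes with summed score >3 taken as preferentially expressed; gene groups defined by combined per-adjuvant z-score thresholds (z>1 to z>3) specific to each organ.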
# liver (LV) = experiment: Whole organ transcriptome (GeneChip microarray) of liver 6 h after adjuvant administration: sDEGs, hierarchical clustering; conditions: hierarchical clustering, liver; note: key: G1 (interferon signaling); G2 (metabolism of lipids and lipoproteins); G3 (response to stress); G4 (response to wounding); G5 (phosphate-containing compound metabolic process); G6 (phagosome)
# spleen (SP) = experiment: Whole organ transcriptome (GeneChip microarray) of spleen 6 h after adjuvant administration: sDEGs, hierarchical clustering; conditions: hierarchical clustering; note: key: G1 (interferon signaling); G2 (metabolism of lipids and lipoproteins); G3 (response to stress); G4 (response to wounding); G5 (phosphate-containing compound metabolic process); G6 (phagosome)
# [2] = system: inguinal lymph nodes (LN); experiment: Whole organ transcriptome (GeneChip microarray) of draining inguinal lymph nodes 6 h after adjuvant administration: sDEGs, gene modules, hierarchical clustering; conditions: hierarchical clustering, lymph node; note: key: G1 (interferon signaling); G2 (metabolism of lipids and lipoproteins); G3 (response to stress); G4 (response to wounding); G5 (phosphate-containing compound metabolic process); G6 (phagosome)
smiles,measurement,setting,value
"CCOCc1nc2c(N)nc3ccccc3c2n1CC(C)(C)O [R848, 4-amino-2-(ethoxymethyl)-a,a-dimethyl-1H-imidazo[4,5-c]quinoline-1-ethanol]","Adar 1425405_a_at (Group G1, Modules 20)",[1]; sample x1,1.63
same,"Adar 1434268_at (Group G1, Modules 20)",[1]; sample x1,2.77
same,"Ddx58 1436562_at (Group G1, Modules 20)",[1]; sample x1,2.64
same,"Ddx58 1456890_at (Group G1, Modules 20)",[1]; sample x1,2.42
same,"Eif2ak2 1422005_at (Group G1, Modules 20)",[1]; sample x1,2.43
same,"G3bp2 1421323_a_at (Group G1, Modules 20)",[1]; sample x1,2.13
same,"Gm9706///Isg15 1431591_s_at (Group G1, Modules 20)",[1]; sample x1,2.55
same,"H2-T10///H2-T22///H2-T9 1449875_s_at (Group G1, Modules 20)",[1]; sample x1,2.05
same,"Ifih1 1426276_at (Group G1, Modules 20)",[1]; sample x1,3.25
same,"Ifit1 1450783_at (Group G1, Modules 20)",[1]; sample x1,1.54
same,"Ifit3 1449025_at (Group G1, Modules 20)",[1]; sample x1,2.19
same,"Irf7 1417244_a_at (Group G1, Modules 20)",[1]; sample x1,2.27
same,"Irgm1 1418825_at (Group G1, Modules 20)",[1]; sample x1,2.87
same,"Mndal 1426906_at (Group G1, Modules 20)",[1]; sample x1,1.65
same,"Pml 1448757_at (Group G1, Modules 20)",[1]; sample x1,1.77
same,"Pml 1456103_at (Group G1, Modules 20)",[1]; sample x1,3.66
same,"Rnf213 1455500_at (Group G1, Modules 20)",[1]; sample x1,1.29
same,"Rsad2 1436058_at (Group G1, Modules 20)",[1]; sample x1,1.97
same,"Shisa5 1423986_a_at (Group G1, Modules 20)",[1]; sample x1,2.93
same,"Shisa5 1437503_a_at (Group G1, Modules 20)",[1]; sample x1,3.09
same,"Stat1 1450033_a_at (Group G1, Modules 20)",[1]; sample x1,1.4
same,"Stat1 1450034_at (Group G1, Modules 20)",[1]; sample x1,2.37
same,"Tdrd7 1426716_at (Group G1, Modules 20)",[1]; sample x1,1.79
same,"Tor1aip2 1418115_s_at (Group G1, Modules 20)",[1]; sample x1,1.53
same,"Tor1aip2 1418116_at (Group G1, Modules 20)",[1]; sample x1,1.45
same,"Tor1aip2 1435526_at (Group G1, Modules 20)",[1]; sample x1,3.12
same,"Trim12a 1437432_a_at (Group G1, Modules 20)",[1]; sample x1,2.13
same,"Uba7 1426970_a_at (Group G1, Modules 20)",[1]; sample x1,2.64
same,"Adar 1425405_a_at (Group G1, Modules 20)",[1]; sample x2,1.17
same,"Adar 1434268_at (Group G1, Modules 20)",[1]; sample x2,1.8
same,"Ddx58 1436562_at (Group G1, Modules 20)",[1]; sample x2,2.33
same,"Ddx58 1456890_at (Group G1, Modules 20)",[1]; sample x2,1.34
same,"Eif2ak2 1422005_at (Group G1, Modules 20)",[1]; sample x2,1.56
same,"G3bp2 1421323_a_at (Group G1, Modules 20)",[1]; sample x2,1.21
same,"Gm9706///Isg15 1431591_s_at (Group G1, Modules 20)",[1]; sample x2,2.1
same,"H2-T10///H2-T22///H2-T9 1449875_s_at (Group G1, Modules 20)",[1]; sample x2,2.01
same,"Ifih1 1426276_at (Group G1, Modules 20)",[1]; sample x2,2.46
same,"Ifit1 1450783_at (Group G1, Modules 20)",[1]; sample x2,1.14
same,"Ifit3 1449025_at (Group G1, Modules 20)",[1]; sample x2,1.76
same,"Irf7 1417244_a_at (Group G1, Modules 20)",[1]; sample x2,2.39
same,"Irgm1 1418825_at (Group G1, Modules 20)",[1]; sample x2,2.12
same,"Mndal 1426906_at (Group G1, Modules 20)",[1]; sample x2,1.42
same,"Pml 1448757_at (Group G1, Modules 20)",[1]; sample x2,1.53
same,"Pml 1456103_at (Group G1, Modules 20)",[1]; sample x2,1.62
same,"Rnf213 1455500_at (Group G1, Modules 20)",[1]; sample x2,1.03
same,"Rsad2 1436058_at (Group G1, Modules 20)",[1]; sample x2,1.77
same,"Shisa5 1423986_a_at (Group G1, Modules 20)",[1]; sample x2,2.32
same,"Shisa5 1437503_a_at (Group G1, Modules 20)",[1]; sample x2,2.43
same,"Stat1 1450033_a_at (Group G1, Modules 20)",[1]; sample x2,1.2
same,"Stat1 1450034_at (Group G1, Modules 20)",[1]; sample x2,1.92
same,"Tdrd7 1426716_at (Group G1, Modules 20)",[1]; sample x2,1.21
same,"Tor1aip2 1418115_s_at (Group G1, Modules 20)",[1]; sample x2,1.08
same,"Tor1aip2 1418116_at (Group G1, Modules 20)",[1]; sample x2,1.22
same,"Tor1aip2 1435526_at (Group G1, Modules 20)",[1]; sample x2,2.18
same,"Trim12a 1437432_a_at (Group G1, Modules 20)",[1]; sample x2,1.94
same,"Uba7 1426970_a_at (Group G1, Modules 20)",[1]; sample x2,2.42
same,"Adar 1425405_a_at (Group G1, Modules 20)",[1]; sample x3,0.96
same,"Adar 1434268_at (Group G1, Modules 20)",[1]; sample x3,1
same,"Ddx58 1436562_at (Group G1, Modules 20)",[1]; sample x3,1.6
same,"Ddx58 1456890_at (Group G1, Modules 20)",[1]; sample x3,0.95
same,"Eif2ak2 1422005_at (Group G1, Modules 20)",[1]; sample x3,1.09
same,"G3bp2 1421323_a_at (Group G1, Modules 20)",[1]; sample x3,1.04
same,"Gm9706///Isg15 1431591_s_at (Group G1, Modules 20)",[1]; sample x3,1.95
same,"H2-T10///H2-T22///H2-T9 1449875_s_at (Group G1, Modules 20)",[1]; sample x3,1.77
same,"Ifih1 1426276_at (Group G1, Modules 20)",[1]; sample x3,2.36
same,"Ifit1 1450783_at (Group G1, Modules 20)",[1]; sample x3,0.63
same,"Ifit3 1449025_at (Group G1, Modules 20)",[1]; sample x3,1.49
same,"Irf7 1417244_a_at (Group G1, Modules 20)",[1]; sample x3,2.37
same,"Irgm1 1418825_at (Group G1, Modules 20)",[1]; sample x3,2.02
same,"Mndal 1426906_at (Group G1, Modules 20)",[1]; sample x3,1.21
same,"Pml 1448757_at (Group G1, Modules 20)",[1]; sample x3,0.66
same,"Pml 1456103_at (Group G1, Modules 20)",[1]; sample x3,1.29
same,"Rnf213 1455500_at (Group G1, Modules 20)",[1]; sample x3,0.72
same,"Rsad2 1436058_at (Group G1, Modules 20)",[1]; sample x3,0.67
same,"Shisa5 1423986_a_at (Group G1, Modules 20)",[1]; sample x3,2.23
same,"Shisa5 1437503_a_at (Group G1, Modules 20)",[1]; sample x3,2.49
same,"Stat1 1450033_a_at (Group G1, Modules 20)",[1]; sample x3,1.05
same,"Stat1 1450034_at (Group G1, Modules 20)",[1]; sample x3,1.52
same,"Tdrd7 1426716_at (Group G1, Modules 20)",[1]; sample x3,0.94
same,"Tor1aip2 1418115_s_at (Group G1, Modules 20)",[1]; sample x3,0.54
same,"Tor1aip2 1418116_at (Group G1, Modules 20)",[1]; sample x3,0.89
same,"Tor1aip2 1435526_at (Group G1, Modules 20)",[1]; sample x3,1.22
same,"Trim12a 1437432_a_at (Group G1, Modules 20)",[1]; sample x3,1.68
same,"Uba7 1426970_a_at (Group G1, Modules 20)",[1]; sample x3,2.27
same,adjuvant group (cluster) in LV,liver (LV),G1
same,adjuvant group (cluster) in SP,spleen (SP),G1
same,adjuvant group (cluster) in LN,[2],G1
